Assay results: BindingDB's records for doi:10.1021/jm900735p (Pharmacy School of Wenzhou Medical College, 2009)

Target: Xanthine dehydrogenase/oxidase (Rattus norvegicus, UniProt P22985)
Experiment: Inhibition of rat liver xanthine oxidase after 2 hrs by spectrophotometry

Sequence of Xanthine dehydrogenase/oxidase (P22985 whole entry): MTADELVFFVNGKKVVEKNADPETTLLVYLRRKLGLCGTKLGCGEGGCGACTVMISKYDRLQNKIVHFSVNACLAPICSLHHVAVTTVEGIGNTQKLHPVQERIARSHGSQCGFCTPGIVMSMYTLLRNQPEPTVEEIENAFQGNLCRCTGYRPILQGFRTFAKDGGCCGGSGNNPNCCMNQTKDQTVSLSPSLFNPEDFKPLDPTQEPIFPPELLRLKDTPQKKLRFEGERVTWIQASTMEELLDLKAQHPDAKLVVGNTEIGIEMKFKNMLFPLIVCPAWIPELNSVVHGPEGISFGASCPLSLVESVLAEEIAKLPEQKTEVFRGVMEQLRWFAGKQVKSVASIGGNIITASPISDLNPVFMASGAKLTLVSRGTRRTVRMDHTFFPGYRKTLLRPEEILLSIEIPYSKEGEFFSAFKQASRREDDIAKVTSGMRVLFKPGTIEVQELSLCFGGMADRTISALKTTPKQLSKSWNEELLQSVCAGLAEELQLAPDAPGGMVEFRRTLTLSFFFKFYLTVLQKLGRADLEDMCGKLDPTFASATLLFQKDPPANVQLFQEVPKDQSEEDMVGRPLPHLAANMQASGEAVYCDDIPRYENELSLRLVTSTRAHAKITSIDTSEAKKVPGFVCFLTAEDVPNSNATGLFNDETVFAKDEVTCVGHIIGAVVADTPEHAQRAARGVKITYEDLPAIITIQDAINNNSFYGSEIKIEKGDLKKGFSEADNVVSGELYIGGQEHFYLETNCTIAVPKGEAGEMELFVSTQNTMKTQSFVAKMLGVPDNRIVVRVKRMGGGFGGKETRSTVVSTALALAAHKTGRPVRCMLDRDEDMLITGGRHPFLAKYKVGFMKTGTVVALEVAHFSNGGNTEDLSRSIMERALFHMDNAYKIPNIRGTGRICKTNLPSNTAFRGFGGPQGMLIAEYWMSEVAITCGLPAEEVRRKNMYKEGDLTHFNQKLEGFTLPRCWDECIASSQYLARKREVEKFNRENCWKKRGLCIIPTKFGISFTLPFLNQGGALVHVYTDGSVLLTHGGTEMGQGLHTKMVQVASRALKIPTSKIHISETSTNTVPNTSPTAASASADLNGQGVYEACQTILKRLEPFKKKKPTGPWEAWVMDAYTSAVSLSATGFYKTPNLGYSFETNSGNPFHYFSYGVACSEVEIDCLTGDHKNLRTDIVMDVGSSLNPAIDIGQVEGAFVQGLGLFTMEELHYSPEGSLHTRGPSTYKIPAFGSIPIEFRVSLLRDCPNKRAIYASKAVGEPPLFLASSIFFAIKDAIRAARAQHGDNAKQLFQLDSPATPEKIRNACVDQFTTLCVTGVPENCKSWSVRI

| IC50 [µM] | SMILES |
| --- | --- |
| 80.3 | COc1cc(C2Oc3cc(-c4oc5cc(O)cc(=O)c-5c(O)c4O)ccc3OC2CO)ccc1O (configuration not stated) [Dehydrosilylbin] |
| 80.3 | COc1cc([C@@H]2Oc3cc(C4Oc5cc(O)cc(O)c5C(O)C4=O)ccc3O[C@H]2CO)ccc1O (some centres not stated) [SMR000857154] |
